Data as given in US9266835B2, “Quinoline derivatives useful as CB-1 inverse agonists” (JANSSEN PHARMACEUTICA NV, priority 2014, dated 2016).

Legend:
[1] = target: Human CB2R (Cannabinoid receptor 2) (Homo sapiens (Human), UniProt P34972); assay: CB-2 in vitro cAMP assay (HTRF), inverse agonism; format: cell-based; conditions: mean where tested more than once
Source text: (§1) CB1 and CB2 receptors are Gi-coupled GPCR. Activation of CB1 and CB2 receptors results in a decrease in cAMP production. An inverse agonist of the CB1 or CB2 receptor results in the opposite effect, an increase of cAMP production. The principle of this assay is based on HTRF® technology (Homogeneous Time-Resolved Fluorescence). The method is a competitive immunoassay between native cAMP produced by cells and the cAMP labeled with the fluorophore d2. The tracer binding is quantified by a Mab anti-cAMP labeled with Eu3+TBP-NHS Cryptate (supplied as part of the assay kit). The specific signal (i.e. energy transfer) is inversely proportional to the concentration of cAMP in the standard or sample.
(§2) Human CB1R (Cannabinoid receptor 1) was stably transfected in HEK-293 cells (DiscoveRx, cat: 93-0200C1). Human CB2R (Cannabinoid receptor 2) was stably transfected in HEK-293 cells (DiscoveRx, cat: 93-0201C1). Cell cultures were maintained in media: DMEM (Invitrogen Cat#12430-054) supplemented with 10% HI FBS (Invitrogen Cat#16140-071), 1% L-glutamine (Invitrogen Cat#25030-081), 0.2 mg/ml Hygromycin B (Invitrogen Cat#10687-010), 600 μg/mL G418 (Invitrogen Cat#10131-035), and 1X Penn/Strep (Invitrogen 15140-122). After cell expansion, aliquots were cryo-stored in media containing 5% DMSO (Pierce Cat#20684).
(§3) One day prior to experiments media was warmed to 37° C. and the cryo-stored cells were thawed in a 37° C. water bath. The cells were then added to media (10× volume) and the mixture was centrifuged at 1000 RPM for 5 min. The supernate was removed and the cells were re-suspended in media. A sample of the cell suspension was evaluated on a Cedex XS automated cell counter (Innovatis Systems) to determine viable cells/ml. Additional media was added to the cells to achieve a final cell density of 4E5 cells/mL. The cells were then plated into 384 well PDL white solid bottom plates (Greiner, Cat#781945) at 20 μL per well using a Multidrop (Thermo Scientific). Cells were removed from Row P (location of cAMP standards). Two columns of cells were plated into a clear bottom 384 well PDL coated plate (Greiner, Cat#781944) to view confluence the day of the assay. The cell plates were lidded and stored for 15 minutes in a hood, then transferred to an incubator (37° C., 5% CO2, 95% humidity) overnight.
(§4) DMSO was added to all wells of 384 well V bottom polystyrene plate (Greiner, Cat#781280) except to columns 1 and 13, rows 0 and P and wells M13-M23 and N13-N23. Test compounds (60 μL, 10 mM) were added to Column 1 and 13 (A1 through N1 and A13 through L13). Test compounds were serially diluted 1/3 by transferring and mixing 20 μl sample with 40 μL DMSO.
(§5) DMSO (40 μL) was added to wells of 384 well V bottom polystyrene plate: O2 through O11, M14 through M23, N14 through N23, and O14 through O23. AM630 (also known as [6-iodo-2-methyl-1-[2-(4-morpholinyl)ethyl]-1H-indol-3-yl](4-methoxyphenyl)-methanone, Cayman Chemical, Cat#10006974) (60 μL, 10 mM) was added to 01; and 1-(2,4-dichlorophenyl)-7-[(4-fluorophenyl)methylene]-4,5,6,7-tetrahydro-N-1-piperidinyl-1H-indazole-3-carboxamide (60 μL, 10 mM) was added to N13. The control was serially diluted 1/3 by transferring and mixing 20 μl sample with 40 μL DMSO. This process resulted 11 doses per control, 10 mM to […].
(§6) Cells plated the day prior to the assay in clear bottom plates were viewed on an inverse microscope to ensure confluency in the range of 60-75%. […]

[2] = target: Human CB1R (Cannabinoid receptor 1) (Homo sapiens (Human), UniProt P21554); assay: CB-1 in vitro cAMP assay (HTRF), inverse agonism; format: cell-based; conditions: mean where tested more than once
Sequence of Human CB1R (Cannabinoid receptor 1) (P21554 whole entry): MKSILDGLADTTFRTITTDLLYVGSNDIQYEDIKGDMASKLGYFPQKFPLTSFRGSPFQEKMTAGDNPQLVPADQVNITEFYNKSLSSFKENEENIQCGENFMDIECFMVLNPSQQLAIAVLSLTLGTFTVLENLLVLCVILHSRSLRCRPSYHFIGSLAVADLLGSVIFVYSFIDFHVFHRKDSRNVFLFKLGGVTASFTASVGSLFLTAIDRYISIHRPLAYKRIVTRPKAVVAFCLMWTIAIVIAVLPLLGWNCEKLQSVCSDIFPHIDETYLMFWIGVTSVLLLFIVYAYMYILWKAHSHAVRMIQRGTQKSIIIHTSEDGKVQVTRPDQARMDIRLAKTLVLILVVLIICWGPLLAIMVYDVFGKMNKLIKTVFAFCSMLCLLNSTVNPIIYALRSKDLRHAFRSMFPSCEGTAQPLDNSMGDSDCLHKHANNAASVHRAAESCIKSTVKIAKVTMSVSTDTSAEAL
Source text: as §1, §2, §3, §4, §5, §6

Sequence of Human CB2R (Cannabinoid receptor 2) (P34972 whole entry): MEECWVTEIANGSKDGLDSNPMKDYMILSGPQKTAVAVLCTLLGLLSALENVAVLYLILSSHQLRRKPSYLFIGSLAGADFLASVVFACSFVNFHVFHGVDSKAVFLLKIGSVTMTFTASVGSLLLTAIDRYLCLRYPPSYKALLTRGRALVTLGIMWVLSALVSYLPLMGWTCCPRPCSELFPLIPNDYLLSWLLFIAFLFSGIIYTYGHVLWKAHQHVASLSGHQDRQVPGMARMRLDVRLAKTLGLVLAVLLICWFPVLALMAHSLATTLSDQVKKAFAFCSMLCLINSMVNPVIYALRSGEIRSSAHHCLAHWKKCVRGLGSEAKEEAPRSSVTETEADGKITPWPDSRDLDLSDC

| SMILES | EC50 [1] [nM] | EC50 [2] [nM] |
| --- | --- | --- |
| COc1ccc(C(O)(c2ccc(Cl)cc2)c2ccc3nc(OC(C)(C)C)cc(/C=C/c4ccccc4)c3c2)cc1 (stereo not drawn) [Compound 512, (E)-(2-(tert-butoxy)-4-styrylquinolin-6-yl)(4-chlorophenyl)(4-methoxyphenyl)methanol] | > 10000 | > 10000 |
| CNC(=O)COc1cc(NC2CCN(S(=O)(=O)C(F)(F)F)CC2)c2cc(C(c3ccc(Cl)cc3)c3ccc(Cl)cc3)ccc2n1 [Compound 533, 2-({6-[Bis(4-chlorophenyl)methyl]-4-({1-[(trifluoromethyl)sulfonyl]-piperidin-4-yl}amino)quinolin-2-yl}oxy)-N-methylacetamide] | > 10000 | 38 |
| CCOC(=O)CS(=O)(=O)N1CCC(Nc2cc(=O)[nH]c3ccc(C(c4ccc(Cl)cc4)c4ccc(Cl)cc4)cc23)CC1 [Compound 102, ethyl 2-((4-((6-(bis(4-chlorophenyl)methyl)-2-oxo-1,2-dihydroquinolin-4-yl)amino)piperidin-1-yl)sulfonyl)acetate] | > 10000 | 17 |
| O=c1cc(/C=C/c2ccccc2)c2cc(C(c3ccc(Cl)cc3)c3ccc(Cl)cc3)ccc2[nH]1 [Compound 502] | > 10000 | 580 |
| O=C(O)CCCOc1ccc(Nc2cc(=O)[nH]c3ccc(C(c4ccc(Cl)cc4)c4ccc(Cl)cc4)cc23)cc1 [Compound 121, 4-[4-({6-[Bis(4-chlorophenyl)methyl]-2-oxo-1,2-dihydroquinolin-4-yl}amino)phenoxy]butanoic acid] | > 10000 | 1010 |

Continued, values first:

| EC50 [1] [nM] | EC50 [2] [nM] | SMILES |
| --- | --- | --- |
| > 10000 | 219 | NC(=O)CCCOc1ccc(Nc2cc(=O)[nH]c3ccc(C(c4ccc(Cl)cc4)c4ccc(Cl)cc4)cc23)cc1 [Compound 123, 4-[4-({6-[Bis(4-chlorophenyl)methyl]-2-oxo-1,2-dihydroquinolin-4-yl}amino)phenoxy]butanamide] |
| > 10000 | 333 | O=c1cc(/C=C/c2cccc(C(F)(F)F)c2)c2cc(C(c3ccc(Cl)cc3)c3cccs3)ccc2[nH]1 (stereo not drawn) [Compound 26, 6-[(4-Chlorophenyl)(thiophen-2-yl)methyl]-4-{(E)-2-[3-(trifluoromethyl)phenyl]-ethenyl}quinolin-2(1H)-one] |
| 6700 | 1280 | O=C(O)COc1cc(NC2CCN(S(=O)(=O)C(F)(F)F)CC2)c2cc(C(c3ccc(Cl)cc3)c3ccc(Cl)cc3)ccc2n1 [Compound 532, ({6-[Bis(4-chlorophenyl)methyl]-4-({1-[(trifluoromethyl)sulfonyl]-piperidin-4-yl}amino)quinolin-2-yl}oxy)acetic acid] |
| > 10000 | 59 | O=c1cc(/C=C/c2ccc(C(F)(F)F)cc2)c2cc(C(c3ccc(Cl)cc3)c3cccs3)ccc2[nH]1 (stereo not drawn) [Compound 19, 6-[(4-Chlorophenyl)(thiophen-2-yl)methyl]-4-{(E)-2-[4-(trifluoromethyl)phenyl]-ethenyl}quinolin-2(1H)-one] |
| 3800 | 36 | COc1cc(NC2CCN(S(=O)(=O)C(F)(F)F)CC2)c2cc(C(c3ccc(Cl)cc3)c3ccc(Cl)cc3)cc(/C=C/CO)c2n1 [Compound 549, (2E)-3-[6-[bis(4-chlorophenyl)methyl]-2-methoxy-4-[[1-(trifluoromethane)sulfonylpiperidin-4-yl]amino]quinolin-8-yl]prop-2-en-1-ol] |
| 40 | > 10000 | O=S(=O)(Oc1cc(C2=CCN(S(=O)(=O)C(F)(F)F)CC2)c2cc(C(c3ccc(Cl)cc3)c3ccc(Cl)cc3)ccc2n1)C(F)(F)F [Compound 519, 6-(bis(4-chlorophenyl)methyl)-4-(1-((trifluoromethyl)sulfonyl)-1,2,3,6-tetrahydropyridin-4-yl)quinolin-2-yl trifluoromethanesulfonate] |
| 9700 | 530 | O=c1cc(NC2CCN(S(=O)(=O)C(F)(F)F)CC2)c2cc(C(O)(c3ccc(F)cc3)c3ccc(Cl)cc3)ccc2[nH]1 (stereo not drawn) [Compound 50, 6-[(4-Chlorophenyl)(4-fluorophenyl)hydroxymethyl]-4-({1-[(trifluoromethyl)sulfonyl]-piperidin-4-yl}amino)quinolin-2(1H)-one] |
